Measured values as given in ChEMBL document CHEMBL5357082, “Identification and Optimization of Small Molecule Pyrazolopyrimidine TLR7 Agonists for Applications in Immuno-oncology” (ACS Med Chem Lett, 2024).
Calls of active or inactive are those of the source. No cut-off for these calls is given here.

Assays:
[1] = Metabolic stability in human liver microsomes assessed as compound remaining at 0.5 uM incubated for 10 mins in presence of NADPH by UV absorbance based assay; type: ADME, Microsome; settings: read-out: Stability
[2] = target: Cytochrome P450 2C19 (Homo sapiens, UniProt P33261); assay: Inhibition of CYP2C19 (unknown origin); type: ADME
[3] = target: T1, Cytochrome P450 1A2 (Homo sapiens, UniProt P05177); assay: Inhibition of CYP1A2 (unknown origin); type: ADME
T1 sequence (P05177 whole entry): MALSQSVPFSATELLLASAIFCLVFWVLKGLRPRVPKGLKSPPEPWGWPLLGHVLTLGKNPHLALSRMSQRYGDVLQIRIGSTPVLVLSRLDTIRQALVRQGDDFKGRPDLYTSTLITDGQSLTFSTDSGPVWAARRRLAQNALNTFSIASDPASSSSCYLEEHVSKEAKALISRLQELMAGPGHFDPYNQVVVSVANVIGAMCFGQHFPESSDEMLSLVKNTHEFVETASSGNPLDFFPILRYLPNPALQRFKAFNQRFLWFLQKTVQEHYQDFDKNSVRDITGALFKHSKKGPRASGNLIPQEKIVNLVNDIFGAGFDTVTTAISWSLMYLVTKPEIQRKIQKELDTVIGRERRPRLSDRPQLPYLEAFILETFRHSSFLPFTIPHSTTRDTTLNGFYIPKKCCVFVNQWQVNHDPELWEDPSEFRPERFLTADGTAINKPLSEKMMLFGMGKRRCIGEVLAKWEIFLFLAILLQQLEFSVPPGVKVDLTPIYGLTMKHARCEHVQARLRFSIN

[4] = target: Cytochrome P450 2C9 (Homo sapiens, UniProt P11712); assay: Inhibition of CYP2C9 (unknown origin); type: ADME
[5] = target: T2, Cytochrome P450 3A4 (Homo sapiens, UniProt P08684); assay: Inhibition of CYP3A4 (unknown origin) using BFC as substrate preincubated with compound followed by substrate addition at 5 mins; type: ADME
[6] = target: T2, Cytochrome P450 3A4; assay: Inhibition of CYP3A4 (unknown origin) using BFC as substrate; type: ADME
[7] = target: T3, Toll-like receptor 7 (Mus musculus) (UniProt P58681); assay: (§1) Agonist activity at mouse TLR7
T3 sequence (whole entry): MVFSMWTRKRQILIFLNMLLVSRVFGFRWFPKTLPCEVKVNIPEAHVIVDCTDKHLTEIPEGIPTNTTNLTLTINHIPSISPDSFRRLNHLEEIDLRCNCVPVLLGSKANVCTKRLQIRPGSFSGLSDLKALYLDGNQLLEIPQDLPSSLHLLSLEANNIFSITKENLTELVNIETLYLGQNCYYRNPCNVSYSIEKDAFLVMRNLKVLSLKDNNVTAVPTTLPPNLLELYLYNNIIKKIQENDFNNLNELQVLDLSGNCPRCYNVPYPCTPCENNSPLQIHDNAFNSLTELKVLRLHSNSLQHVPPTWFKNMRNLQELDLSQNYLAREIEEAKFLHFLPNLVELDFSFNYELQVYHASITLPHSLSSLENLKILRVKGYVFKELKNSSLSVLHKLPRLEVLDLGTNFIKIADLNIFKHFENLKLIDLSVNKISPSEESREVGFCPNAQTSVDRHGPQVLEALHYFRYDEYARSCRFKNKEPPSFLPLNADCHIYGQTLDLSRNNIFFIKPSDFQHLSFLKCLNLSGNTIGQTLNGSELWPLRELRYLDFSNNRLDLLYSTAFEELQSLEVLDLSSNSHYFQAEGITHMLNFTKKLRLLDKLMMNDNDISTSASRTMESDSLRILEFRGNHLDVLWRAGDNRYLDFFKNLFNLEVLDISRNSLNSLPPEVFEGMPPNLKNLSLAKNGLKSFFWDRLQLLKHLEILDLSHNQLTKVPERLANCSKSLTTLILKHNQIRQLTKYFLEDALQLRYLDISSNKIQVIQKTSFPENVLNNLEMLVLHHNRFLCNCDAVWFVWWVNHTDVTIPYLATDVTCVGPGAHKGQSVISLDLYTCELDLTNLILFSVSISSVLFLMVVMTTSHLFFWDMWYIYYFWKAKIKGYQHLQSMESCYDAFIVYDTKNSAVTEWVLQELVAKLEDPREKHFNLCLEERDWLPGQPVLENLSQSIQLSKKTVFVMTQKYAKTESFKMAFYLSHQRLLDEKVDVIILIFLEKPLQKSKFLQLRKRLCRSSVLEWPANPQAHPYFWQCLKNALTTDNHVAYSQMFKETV

[8] = target: T4, Cytochrome P450 2C8 (Homo sapiens, UniProt P10632); assay: Inhibition of CYP2C8 (unknown origin); type: ADME
T4 sequence (P10632 whole entry): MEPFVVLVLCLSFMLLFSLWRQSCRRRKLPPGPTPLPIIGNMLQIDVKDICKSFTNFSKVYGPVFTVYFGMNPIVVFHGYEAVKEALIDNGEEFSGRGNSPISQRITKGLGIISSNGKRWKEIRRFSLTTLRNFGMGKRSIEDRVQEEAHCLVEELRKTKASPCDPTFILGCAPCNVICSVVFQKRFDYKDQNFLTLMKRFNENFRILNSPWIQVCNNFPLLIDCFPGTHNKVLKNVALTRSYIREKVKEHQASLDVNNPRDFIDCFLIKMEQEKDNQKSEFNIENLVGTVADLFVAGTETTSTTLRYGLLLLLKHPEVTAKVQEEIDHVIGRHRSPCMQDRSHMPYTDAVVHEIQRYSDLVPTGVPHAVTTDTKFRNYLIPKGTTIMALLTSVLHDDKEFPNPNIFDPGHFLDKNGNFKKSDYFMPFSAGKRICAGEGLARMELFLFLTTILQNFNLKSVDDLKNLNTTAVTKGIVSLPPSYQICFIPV

[9] = Cytotoxicity against PHA-activated T-cells (unknown origin) assessed as inhibition of IL-2 induced cell proliferation measured after 72 hrs by MTS assay; type: toxicity, cell-based
[10] = Metabolic stability in mouse liver microsomes assessed as compound remaining at 0.5 uM incubated for 10 mins in presence of NADPH by UV absorbance based assay; type: ADME, Microsome; settings: read-out: Stability
[11] = target: T2, Cytochrome P450 3A4; assay: Inhibition of CYP3A4 (unknown origin) using BFC as substrate preincubated with compound followed by substrate addition at 30 mins; type: ADME
[12] = target: Voltage-gated inwardly rectifying potassium channel KCNH2 (Homo sapiens, UniProt Q12809); assay: Inhibition of hERG; type: toxicity
[13] = target: Cytochrome P450 2D6 (Homo sapiens, UniProt P10635); assay: Inhibition of CYP2D6 (unknown origin); type: ADME
[14] = target: T5, Toll-like receptor 7 (Homo sapiens, UniProt Q9NYK1); assay: Agonist activity at human TLR7 in HEK-Blue hTLR7 cells harboring SEAP reporter transgene incubated for 18 hrs by quanti-blue reagent based assay; type: cell-based
T5 sequence (Q9NYK1 whole entry): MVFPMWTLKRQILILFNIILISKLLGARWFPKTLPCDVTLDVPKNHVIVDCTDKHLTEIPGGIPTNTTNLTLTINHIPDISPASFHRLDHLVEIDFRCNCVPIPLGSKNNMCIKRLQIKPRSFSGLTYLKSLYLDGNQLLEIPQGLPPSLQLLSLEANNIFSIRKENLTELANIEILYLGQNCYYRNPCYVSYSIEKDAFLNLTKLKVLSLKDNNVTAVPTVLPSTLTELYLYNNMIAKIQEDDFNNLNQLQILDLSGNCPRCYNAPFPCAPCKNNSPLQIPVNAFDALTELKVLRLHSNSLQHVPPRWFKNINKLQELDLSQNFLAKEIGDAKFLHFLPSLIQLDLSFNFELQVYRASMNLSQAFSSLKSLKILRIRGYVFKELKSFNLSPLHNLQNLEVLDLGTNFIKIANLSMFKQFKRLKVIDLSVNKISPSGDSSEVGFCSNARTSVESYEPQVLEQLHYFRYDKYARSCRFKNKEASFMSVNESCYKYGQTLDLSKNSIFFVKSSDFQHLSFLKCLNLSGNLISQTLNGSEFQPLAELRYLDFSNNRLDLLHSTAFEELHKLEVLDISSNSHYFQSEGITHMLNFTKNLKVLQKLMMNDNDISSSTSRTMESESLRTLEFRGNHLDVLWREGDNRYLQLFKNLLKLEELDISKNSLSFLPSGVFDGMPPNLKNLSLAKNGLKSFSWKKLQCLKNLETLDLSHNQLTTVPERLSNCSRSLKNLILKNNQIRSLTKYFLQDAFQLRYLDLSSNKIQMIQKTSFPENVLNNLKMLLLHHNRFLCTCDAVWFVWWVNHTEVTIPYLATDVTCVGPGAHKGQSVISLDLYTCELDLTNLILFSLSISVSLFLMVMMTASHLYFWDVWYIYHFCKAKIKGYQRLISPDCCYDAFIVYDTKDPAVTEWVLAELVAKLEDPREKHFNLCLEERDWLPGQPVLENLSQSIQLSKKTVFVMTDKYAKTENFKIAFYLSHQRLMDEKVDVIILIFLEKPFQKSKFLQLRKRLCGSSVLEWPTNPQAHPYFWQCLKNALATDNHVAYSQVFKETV

[15] = target: T6, Toll-like receptor 7 (Mus musculus, UniProt P58681); assay: as §1
T6 sequence (P58681 whole entry): T3 sequence (whole entry)

Chain of Voltage-gated inwardly rectifying potassium channel KCNH2 (Q12809 whole entry): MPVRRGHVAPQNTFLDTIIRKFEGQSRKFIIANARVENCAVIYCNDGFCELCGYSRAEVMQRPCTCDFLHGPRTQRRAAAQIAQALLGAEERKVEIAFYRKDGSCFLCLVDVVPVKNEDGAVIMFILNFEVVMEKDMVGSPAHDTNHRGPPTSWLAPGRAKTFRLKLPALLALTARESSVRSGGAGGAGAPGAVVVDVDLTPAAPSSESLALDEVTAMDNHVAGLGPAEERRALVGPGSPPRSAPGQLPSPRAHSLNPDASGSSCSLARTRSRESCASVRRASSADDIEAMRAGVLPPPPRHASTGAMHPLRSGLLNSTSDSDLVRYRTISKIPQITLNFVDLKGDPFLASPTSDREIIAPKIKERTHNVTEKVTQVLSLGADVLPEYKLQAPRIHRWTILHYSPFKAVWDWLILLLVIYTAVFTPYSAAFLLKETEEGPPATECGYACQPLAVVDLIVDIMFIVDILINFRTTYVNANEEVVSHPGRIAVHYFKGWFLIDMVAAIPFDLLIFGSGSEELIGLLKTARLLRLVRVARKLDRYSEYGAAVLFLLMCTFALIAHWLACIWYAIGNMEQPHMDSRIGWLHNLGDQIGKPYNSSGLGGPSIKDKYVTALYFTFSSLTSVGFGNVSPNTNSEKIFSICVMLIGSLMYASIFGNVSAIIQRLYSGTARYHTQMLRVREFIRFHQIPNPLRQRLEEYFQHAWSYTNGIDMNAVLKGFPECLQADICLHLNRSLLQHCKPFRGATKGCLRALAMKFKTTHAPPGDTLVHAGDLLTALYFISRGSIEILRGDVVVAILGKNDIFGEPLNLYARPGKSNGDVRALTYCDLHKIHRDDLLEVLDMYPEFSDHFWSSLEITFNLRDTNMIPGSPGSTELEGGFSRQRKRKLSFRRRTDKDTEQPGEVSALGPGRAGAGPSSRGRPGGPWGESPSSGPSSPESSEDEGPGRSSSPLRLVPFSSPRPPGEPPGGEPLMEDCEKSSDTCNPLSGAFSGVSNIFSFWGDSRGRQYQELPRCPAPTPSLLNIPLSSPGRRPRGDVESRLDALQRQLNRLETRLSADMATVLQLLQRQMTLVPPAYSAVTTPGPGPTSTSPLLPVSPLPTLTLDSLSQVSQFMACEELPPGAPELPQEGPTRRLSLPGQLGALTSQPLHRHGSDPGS
Chain of Cytochrome P450 2C19 (P33261 whole entry): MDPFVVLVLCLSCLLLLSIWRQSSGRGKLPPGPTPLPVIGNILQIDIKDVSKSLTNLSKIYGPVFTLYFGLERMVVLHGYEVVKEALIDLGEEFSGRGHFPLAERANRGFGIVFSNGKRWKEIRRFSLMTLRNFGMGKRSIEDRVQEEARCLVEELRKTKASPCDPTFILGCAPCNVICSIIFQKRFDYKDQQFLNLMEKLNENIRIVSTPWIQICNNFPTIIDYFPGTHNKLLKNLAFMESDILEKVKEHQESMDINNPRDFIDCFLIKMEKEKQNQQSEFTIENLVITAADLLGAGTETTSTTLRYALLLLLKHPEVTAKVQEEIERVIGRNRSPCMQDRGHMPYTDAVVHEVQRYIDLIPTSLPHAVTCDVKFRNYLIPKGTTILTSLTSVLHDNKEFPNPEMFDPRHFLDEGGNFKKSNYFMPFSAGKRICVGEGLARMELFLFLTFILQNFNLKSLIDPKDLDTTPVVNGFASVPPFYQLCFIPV
Chain of Cytochrome P450 2C9 (P11712 whole entry): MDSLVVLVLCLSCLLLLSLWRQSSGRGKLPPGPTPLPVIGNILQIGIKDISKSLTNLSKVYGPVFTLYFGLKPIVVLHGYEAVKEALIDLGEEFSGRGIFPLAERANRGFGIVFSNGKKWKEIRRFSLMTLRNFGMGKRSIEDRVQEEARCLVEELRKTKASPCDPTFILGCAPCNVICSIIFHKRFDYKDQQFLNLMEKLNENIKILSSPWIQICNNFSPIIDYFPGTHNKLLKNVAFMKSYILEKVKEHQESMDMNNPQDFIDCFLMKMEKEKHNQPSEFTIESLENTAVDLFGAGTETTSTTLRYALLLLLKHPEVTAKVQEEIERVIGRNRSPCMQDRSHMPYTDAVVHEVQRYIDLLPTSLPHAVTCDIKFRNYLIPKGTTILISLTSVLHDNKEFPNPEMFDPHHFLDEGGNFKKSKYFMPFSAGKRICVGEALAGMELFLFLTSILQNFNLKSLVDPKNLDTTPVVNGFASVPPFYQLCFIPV
Chain of Cytochrome P450 2D6 (P10635 whole entry): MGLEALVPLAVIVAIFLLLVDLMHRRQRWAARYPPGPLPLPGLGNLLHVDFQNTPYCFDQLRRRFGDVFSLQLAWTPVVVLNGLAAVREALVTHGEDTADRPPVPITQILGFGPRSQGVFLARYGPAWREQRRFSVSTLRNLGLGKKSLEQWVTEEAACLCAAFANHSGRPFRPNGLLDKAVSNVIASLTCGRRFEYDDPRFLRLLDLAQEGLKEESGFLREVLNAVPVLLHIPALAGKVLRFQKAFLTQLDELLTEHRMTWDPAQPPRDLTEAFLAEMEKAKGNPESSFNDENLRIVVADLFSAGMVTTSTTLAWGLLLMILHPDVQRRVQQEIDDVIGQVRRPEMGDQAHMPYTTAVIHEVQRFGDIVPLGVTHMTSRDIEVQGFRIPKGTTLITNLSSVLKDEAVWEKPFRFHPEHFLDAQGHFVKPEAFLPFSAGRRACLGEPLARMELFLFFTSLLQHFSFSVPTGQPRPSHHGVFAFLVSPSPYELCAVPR
T2 sequence (P08684 whole entry): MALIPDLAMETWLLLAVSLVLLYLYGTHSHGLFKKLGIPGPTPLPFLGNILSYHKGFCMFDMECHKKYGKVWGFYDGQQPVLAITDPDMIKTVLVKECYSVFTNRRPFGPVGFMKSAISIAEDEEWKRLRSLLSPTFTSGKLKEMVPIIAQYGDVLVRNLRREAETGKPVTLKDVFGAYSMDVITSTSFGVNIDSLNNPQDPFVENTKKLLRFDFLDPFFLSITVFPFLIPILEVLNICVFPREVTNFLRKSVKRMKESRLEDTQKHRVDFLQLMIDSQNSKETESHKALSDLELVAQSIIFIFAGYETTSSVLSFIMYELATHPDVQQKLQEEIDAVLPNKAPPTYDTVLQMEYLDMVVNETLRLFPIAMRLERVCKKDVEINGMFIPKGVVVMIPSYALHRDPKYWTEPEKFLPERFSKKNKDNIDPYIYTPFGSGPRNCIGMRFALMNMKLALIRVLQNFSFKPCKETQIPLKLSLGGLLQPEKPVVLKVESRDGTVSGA

SMILES | remaining at 10 min, 0.5 µM [1] | IC50 [2] | IC50 [3] | IC50 [4] | IC50 [5] | IC50 [6] | Activity [7] | IC50 [8] | IC50 at 72 h [9] | remaining at 10 min, 0.5 µM [10] | IC50 [11] | IC50 [12] | IC50 [13] | EC50 [14] | EC50 [15] | inhibition (INH) ([12]; human)
CCC[C@@H](CCO)Nc1nc(N)nc2cnn(Cc3ncc(C4CCN(C5CCNCC5)CC4)cc3OC)c12 | 100% | > 20 µM | > 20 µM | > 20 µM | > 20 µM | > 20 µM | inactive | > 20 µM | > 25 µM | 100% | > 20 µM | 32.6 µM | > 20 µM |  |  | 
CCC[C@@H](CCO)Nc1nc(N)nc2cnn(Cc3ncc(C4CCC5(CC4)CN(C4CCOCC4)C5)cc3OC)c12 | 57% | > 20 µM | > 20 µM | > 20 µM | > 20 µM | > 20 µM |  | > 20 µM | 18 µM | 50% | > 20 µM |  | > 20 µM | 0.012 µM | 0.029 µM | Not Active
CCC[C@@H](CCO)Nc1nc(N)nc2cnn(Cc3ncc(C4CCN(CCO)CC4)cc3OC)c12 | 93% | > 20 µM | > 20 µM | > 20 µM | > 20 µM | > 20 µM |  | > 20 µM | > 25 µM | 100% | > 20 µM | > 50 µM | > 20 µM | 0.049 µM | 0.124 µM | 
CCC[C@@H](CCO)Nc1nc(N)nc2cnn(Cc3ncc(C4CC5(C4)CN(C4CCOCC4)C5)cc3OC)c12 | 77% | > 20 µM | > 20 µM | > 20 µM | > 20 µM | > 20 µM |  | > 20 µM | > 25 µM | 66% | > 20 µM | > 50 µM | > 20 µM | 0.37 µM | 0.148 µM | 
CCC[C@@H](CCO)Nc1nc(N)nc2cnn(Cc3ncc(C4CCC5(CC4)CNC5)cc3OC)c12 | 100% | > 14 µM | > 14 µM | > 14 µM | > 14 µM | > 14 µM |  | > 14 µM | > 25 µM | 44% | > 14 µM | 14 µM | > 14 µM | 0.133 µM | 0.177 µM | 
CCC[C@@H](CCO)Nc1nc(N)nc2cnn(Cc3ncc(C4CCN(C5CCN(C)CC5)CC4)cc3OC)c12 | 99% | > 20 µM | > 20 µM | > 20 µM | > 20 µM | > 20 µM | inactive | > 20 µM | > 25 µM | 85% | > 20 µM | > 50 µM | > 20 µM |  |  | 
